Literature values, collected in patent US20030060503A1, “Nutritional supplements for mature pets” (Juvenon, Inc., priority 2000, published 2003).
Where two headings read alike, the source gives them in different places.

How the values were obtained:
[1] = system: carnitine-acetyl-carnitine exchange across the inner mitochondrial membrane
[2] = daily supplements of up to 200 mg for 6-12 months and 100 mg daily for up to 6 y
[3] = system: programmed cell death, or apoptosis; details: through its action in the mitochondria
[4] = system: senescent myocardium
[5] = system: aged rats; details: supplementation
[6] = system: oxidant production; details: carnitine supplementation
[7] = system: skeletal muscle; details: older individuals (40-73), 20 g/day, one week
[8] = system: human lymphocytes

C[N+](C)(C)C[C@H](O)CC(=O)[O-] [L-carnitine]
age-related decrease of carnitine-acetyl-carnitine exchange activity [1]: slow or reverse this age-related dysfunction

COC1=C(OC)C(=O)C(C/C=C(\C)CC/C=C(\C)CC/C=C(\C)CC/C=C(\C)CC/C=C(\C)CC/C=C(\C)CC/C=C(\C)CC/C=C(\C)CC/C=C(\C)CCC=C(C)C)=C(C)C1=O [Q10, coenzyme Q10]
adverse effects [2]: No important adverse effects
programmed cell death (apoptosis) [3]: appears to block programmed cell death
recovery of function in older hearts [4]: corrected the age-specific diminished recovery of function in older hearts
tolerance of senescent myocardium to aerobic and ischemic stress ([4]; human atrial tissue and rats): improves the tolerance of the senescent myocardium to aerobic and ischemic stress

O=C(O)CCCC[C@@H]1CCSS1 [R-α-lipoic acid]
ambulatory activity ([5]; aged rats): triple the ambulatory activity of aged rats
age-related increase in oxidants [5]: significantly lower the age-related increase in oxidants
glutathione and ascorbic acid levels [5]: restore glutathione and ascorbic acid levels to youthful levels
mitochondrial membrane potential [5]: restore the age-related decline in mitochondrial membrane potential
oxygen consumption [5]: reverse the age-related decrease in oxygen consumption

C[N+](C)(C)CC(O)CC(=O)[O-] (centres unmarked) [carnitine]
cell antioxidants [6]: decreased cell antioxidants markedly
increase in oxidant production [6]: 30%

CN(CC(=O)O)C(=N)N [creatine]
safety (1.5 g-25 g/day for at least a year): safe
adverse effects (athletes, doses up to 75 grams a day for years): without known adverse effects, aside from weight gain
skeletal muscle strength and endurance [7]: increased skeletal muscle strength and endurance

COc1c(O)c(C)c(C/C=C(\C)CC/C=C(\C)CC/C=C(\C)CC/C=C(\C)CC/C=C(\C)CC/C=C(\C)CC/C=C(\C)CC/C=C(\C)CC/C=C(\C)CCC=C(C)C)c(O)c1OC [ubiquinol-10]
oxidative damage to DNA [8]: appears to protect human lymphocytes from oxidative damage to DNA

acyl-L-carnitine
age-related decrease of carnitine-acetyl-carnitine exchange activity [1]: slow or reverse this age-related dysfunction
